From PubChem BioAssay AID328 (DTP/NCI, 2004) come the findings set out here.

For the assay, the system named is BDF1 mice, P388 leukemia ip, median survival T/C. The assay can be described thus: NCI In Vivo Anticancer Drug Screen. Data for tumor model P388 Leukemia (intraperitoneal) in B6D2F1 (BDF1) mice. Conditions: endpoint: median survival time, higher = longer survival. In a few lines:
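In tumour-bearing mice, survival after compound treatment is set against the vehicle group and given as a quotient.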

Setting [1] is: dose: 25.0 mg/kg/injection, schedule: Q01DX009 (ip), vehicle: saline with Tween-80.
[2] abbreviates: dose: 50.0 mg/kg/injection, schedule: Q01DX009 (ip), vehicle: saline with Tween-80.
Setting [3] is: dose: 100.0 mg/kg/injection, schedule: Q01DX009 (ip), vehicle: saline with Tween-80.
The mark [4] stands for this setting: dose: 100.0 mg/kg/injection, schedule: Q04DX003 (ip), vehicle: saline with Tween-80.
[5] abbreviates: dose: 200.0 mg/kg/injection, schedule: Q04DX003 (ip), vehicle: saline with Tween-80.
The mark [6] stands for this setting: dose: 200.0 mg/kg/injection, schedule: Q01DX009 (ip), vehicle: Klucel (hydroxypropylcellulose) (HPC).
[7] abbreviates: dose: 100.0 mg/kg/injection, schedule: Q04DX003 (ip), vehicle: saline.
The mark [8] stands for this setting: dose: 200.0 mg/kg/injection, schedule: Q04DX003 (ip), vehicle: saline.

Molecules are shown by their SMILES. Several values for one entry are separate records, joined by “and”; a condition that tells them apart may be missing. Equal values may be shown once. Toxic doses and inconclusive results are not listed.

In the case of `COC(=O)/C=C(\C)Oc1cc(Cl)c(Cl)cc1Cl`, the T/C under setting [1] is 90 % of control; the T/C under setting [2] is 100 % of control; the T/C under setting [3] was 100 % of control; the T/C under setting [4] was 109 % of control; the T/C under setting [5] was 100 % of control; the T/C (dose: 400.0 mg/kg/injection, schedule: Q04DX003 (ip), vehicle: saline with Tween-80) is 95 % of control.

As to `C1CN1c1nc(N2CC2)nc(N2CC2)n1`, the T/C runs as follows: (dose: 0.05 mg/kg/injection, schedule: Q01DX009 (ip), vehicle: saline) 175 % of control; (dose: 0.1 mg/kg/injection, schedule: Q01DX009 (ip), vehicle: saline) 115 % of control; (dose: 0.13 mg/kg/injection, schedule: Q01DX010 (ip), vehicle: saline) 109 % of control; (dose: 0.25 mg/kg/injection, schedule: Q01DX010 (ip), vehicle: saline) 150 % of control; (dose: 0.25 mg/kg/injection, schedule: Q01DX010 (ip), vehicle: water) 190 % of control; (dose: 0.4 mg/kg/injection, schedule: Q01DX009 (ip), vehicle: saline) 159 % of control. In addition, the T/C (dose: 0.5 mg/kg/injection, schedule: Q01DX009 (ip), vehicle: saline) was 200 % of control; the T/C (dose: 0.5 mg/kg/injection, schedule: Q01DX010 (ip), vehicle: saline) is 272 % of control; the T/C (dose: 0.5 mg/kg/injection, schedule: Q01DX010 (ip), vehicle: water) is 268 % of control; the T/C (dose: 0.75 mg/kg/injection, schedule: Q01DX010 (ip), vehicle: water) is 268 % of control; the T/C (dose: 0.8 mg/kg/injection, schedule: Q01DX009 (ip), vehicle: saline) is 86 % of control.

For `CCCCC(=O)c1cc(OC)cc(OC)c1`, the T/C runs as follows: under setting [6], 100 % of control; (dose: 400.0 mg/kg/injection, schedule: Q01DX009 (ip), vehicle: Klucel (hydroxypropylcellulose) (HPC)) 91 % of control.

As to `NC(N)=NC(N)=Nc1ccc(Cl)c(Cl)c1`, the T/C is, setting by setting: under setting [1], 98 % of control; under setting [2], 121 % of control.

`C=C1C=C(C)CC(C)(C)C1` (tested in a mixture with another compound): the T/C was 100 % of control (dose: 100.0 mg/kg/injection, schedule: Q01DX009 (ip), vehicle: saline sonified); 100 % of control (dose: 200.0 mg/kg/injection, schedule: Q01DX009 (ip), vehicle: saline sonified); 100 % of control (dose: 400.0 mg/kg/injection, schedule: Q01DX009 (ip), vehicle: saline sonified).

As for `O=NN(CCF)C(=O)NC1CCC(NC(=O)N(CCF)N=O)CC1` (configuration not stated), the T/C by setting is: (dose: 16.5 mg/kg/injection, schedule: Q04DX003 (ip), vehicle: saline with Tween-80) 186 % of control; (dose: 33.0 mg/kg/injection, schedule: Q04DX003 (ip), vehicle: saline with Tween-80) 272 % of control; (dose: 66.0 mg/kg/injection, schedule: Q04DX003 (ip), vehicle: saline with Tween-80) 272 % of control; under setting [4], 272 % of control; (dose: 132.0 mg/kg/injection, schedule: Q04DX003 (ip), vehicle: alcohol) 272 % of control; under setting [5], 200 % of control.

Take `O=C(COCc1ccccc1)OCc1ccccc1`: the T/C is 109 % of control under setting [7]; 104 % of control under setting [8]; 113 % of control (dose: 400.0 mg/kg/injection, schedule: Q04DX003 (ip), vehicle: saline).

Regarding `Nc1nc(=S)c2[nH]c(N=Nc3ccc(S(=O)(=O)Nc4ncccn4)cc3)nc2[nH]1`, the T/C was 118 % of control (dose: 50.0 mg/kg/injection, schedule: Q01DX009 (ip), vehicle: Klucel (hydroxypropylcellulose) (HPC)); 108 % of control (dose: 50.0 mg/kg/injection, schedule: Q04DX003 (ip), vehicle: Klucel (hydroxypropylcellulose) (HPC)); 100 % of control (dose: 100.0 mg/kg/injection, schedule: Q01DX009 (ip), vehicle: Klucel (hydroxypropylcellulose) (HPC)); 108 % of control (dose: 100.0 mg/kg/injection, schedule: Q04DX003 (ip), vehicle: Klucel (hydroxypropylcellulose) (HPC)); 86 % of control under setting [6]; 112 % of control (dose: 200.0 mg/kg/injection, schedule: Q04DX003 (ip), vehicle: Klucel (hydroxypropylcellulose) (HPC)).

As for `O=C(O)CCCl`, the T/C runs as follows: (dose: 50.0 mg/kg/injection, schedule: Q04DX003 (ip), vehicle: saline) 104 % of control; (dose: 100.0 mg/kg/injection, schedule: Q01DX009 (ip), vehicle: saline) 91 % of control; under setting [7], 104 % of control; (dose: 200.0 mg/kg/injection, schedule: Q01DX009 (ip), vehicle: saline) 95 % of control; under setting [8], 100 % of control.

In the case of `Cn1cc(/C=C\C(=O)O)c2nccnc21`, the T/C is, setting by setting: (dose: 6.25 mg/kg/injection, schedule: Q01DX009 (ip), vehicle: water) 96 % of control; (dose: 12.5 mg/kg/injection, schedule: Q01DX009 (ip), vehicle: water) 90 % of control; (dose: 25.0 mg/kg/injection, schedule: Q01DX009 (ip), vehicle: water) 90 % of control; (dose: 100.0 mg/kg/injection, schedule: Q01DX009 (ip), vehicle: water) 102 % of control.

Turning to `c1ccc2sc(SSN3CC4CCC(CC4)C3)nc2c1`, the T/C under setting [2] was 102 % of control and 122 % of control.

For the molecule `Cc1ccc(S(=O)(=O)c2ccc([N+](=O)[O-])c3no[n+]([O-])c23)cc1`, the T/C is, setting by setting: under setting [1], 104 % of control; under setting [2], 108 % of control; under setting [3], 116 % of control.

As for `CN(C)CC/C=C1\c2ccccc2Sc2ccc(C(F)(F)F)cc21`, the T/C (dose: 9.2 mg/kg/injection, schedule: Q04DX003 (ip), vehicle: saline) is 112 % of control and 113 % of control; the T/C (dose: 21.0 mg/kg/injection, schedule: Q04DX003 (ip), vehicle: saline) is 116 % of control; the T/C (dose: 29.0 mg/kg/injection, schedule: Q04DX003 (ip), vehicle: saline) is 100 % of control; the T/C (dose: 65.0 mg/kg/injection, schedule: Q01DX001 (ip), vehicle: saline) is 122 % of control.

Regarding `CO[C@@H]1[C@@H](OC2OC(C)C(OC3CC(C)(O)C(OC(=O)CC(C)C)C(C)O3)C(N(C)C)C2O)[C@@H](CC=O)C[C@@H](C)C(=O)/C=C/C2O[C@H]2C[C@@H](C)OC(=O)C[C@H]1OC(C)=O` (some centres not stated), the T/C (dose: 50.0 mg/kg/injection, schedule: Q#A X020 (ip), vehicle: water) was 109 % of control; the T/C (dose: 100.0 mg/kg/injection, schedule: Q01DX001 (ip), vehicle: water) was 110 % of control; the T/C (dose: 100.0 mg/kg/injection, schedule: Q01DX010 (ip), vehicle: water) is 118 % of control; the T/C (dose: 100.0 mg/kg/injection, schedule: Q#A X020 (ip), vehicle: water) is 118 % of control; the T/C (dose: 150.0 mg/kg/injection, schedule: Q#A X020 (ip), vehicle: water) is 118 % of control; the T/C (dose: 200.0 mg/kg/injection, schedule: Q01DX001 (ip), vehicle: water) was 100 % of control. In addition, the T/C is, setting by setting: (dose: 200.0 mg/kg/injection, schedule: Q01DX010 (ip), vehicle: water) 109 % of control; (dose: 200.0 mg/kg/injection, schedule: Q#A X020 (ip), vehicle: water) 118 % of control; (dose: 300.0 mg/kg/injection, schedule: Q01DX010 (ip), vehicle: water) 118 % of control; (dose: 400.0 mg/kg/injection, schedule: Q01DX001 (ip), vehicle: water) 90 % of control; (dose: 600.0 mg/kg/injection, schedule: Q01DX001 (ip), vehicle: water) 100 % of control; (dose: 1000.0 mg/kg/injection, schedule: Q01DX010 (oral), vehicle: water) 86 % of control. Also, where the note is “dose: 1500.0 mg/kg/injection, schedule: Q01DX010 (oral), vehicle: water”, the T/C is 100 % of control.

For `CO[C@H]1C[C@](C)(O)Cc2cc3c(c(O)c21)C(=O)c1c(O)cc2c(c1C3=O)O[C@@H]1O[C@@]2(C)[C@H](O)[C@@H](N(C)C)[C@@H]1O`, the T/C was 228 % of control (dose: 18.0 mg/kg/injection, schedule: Q04DX003 (ip), vehicle: lactate); 271 % of control (dose: 30.0 mg/kg/injection, schedule: Q04DX003 (ip), vehicle: lactate); 107 % of control (dose: 50.0 mg/kg/injection, schedule: Q04DX003 (ip), vehicle: lactate).
